According to the supplement of paper PMC11061612:

Tests used:
Assay in all cases: combination Emax (second highest fraction inhibited in the dose matrix, 72 h); higher = more inhibition; extreme values may be limits of the assay
[1] = test system: BT-474 (Breast Carcinoma)
Outline: (§1)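 After 24 hours at 37°C and 5% CO2 in 1536-well plates, cells in DMEM/F12 or RPMI plus 10% FBS received two-drug dose matrices for 72 hours. Viability came from CellTiter-Glo 2.0 luminescence and was scaled as inhibition, anchored at 0 by vehicle wells and at 1 by blank wells. Combination Emax is taken as the second-highest inhibition in the matrix, and Bliss excess as the observed combination effect less EA + EB − EA·EB, with EA and EB the single-agent effects.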

[2] = test system: COR-L105 (Lung Adenocarcinoma)
Outline: as §1

DK-MG (Glioblastoma) = test system: DK-MG (Glioblastoma)
Outline: as §1

[3] = test system: HT-3 (Cervical Carcinoma)
Outline: as §1

[4] = test system: JURL-MK1 (Chronic Myelogenous Leukemia)
Outline: as §1

[5] = test system: MDA-MB-175-VII (Breast Carcinoma)
Outline: as §1

MG-63 (Osteosarcoma) = test system: MG-63 (Osteosarcoma)
Outline: as §1

[6] = test system: MRK-nu-1 (Breast Carcinoma)
Outline: as §1

[7] = test system: NCI-H1648 (Lung Adenocarcinoma)
Outline: as §1

[8] = test system: NCI-H1944 (Lung Adenocarcinoma)
Outline: as §1

[9] = test system: NCI-H1975 (Lung Adenocarcinoma)
Outline: as §1

[10] = test system: NCI-H2023 (Non-Small Cell Lung Carcinoma)
Outline: as §1

[11] = test system: NCI-H2170 (Squamous Cell Lung Carcinoma)
Outline: as §1

NCI-H2452 (Mesothelioma) = test system: NCI-H2452 (Mesothelioma)
Outline: as §1

[12] = test system: NTERA-2-cl-D1 (Other Solid Carcinomas)
Outline: as §1

[13] = test system: OCI-M1 (Acute Myeloid Leukemia)
Outline: as §1

[14] = test system: OVKATE (Ovarian Carcinoma)
Outline: as §1

[15] = test system: SNU-1 (Gastric Carcinoma)
Outline: as §1

[16] = test system: SUP-HD1 (Hodgkin's Lymphoma)
Outline: as §1

[17] = test system: TOV-21G (Ovarian Carcinoma)
Outline: as §1

Row | Structure (SMILES) | combination Emax [1] | combination Emax [2] | combination Emax (DK-MG (Glioblastoma)) | combination Emax [3] | combination Emax [4] | combination Emax [5] | combination Emax (MG-63 (Osteosarcoma)) | combination Emax [6] | combination Emax [7] | combination Emax [8] | combination Emax [9] | combination Emax [10] | combination Emax [11] | combination Emax (NCI-H2452 (Mesothelioma)) | combination Emax [12] | combination Emax [13] | combination Emax [14] | combination Emax [15] | combination Emax [16] | combination Emax [17]
1 | NC1(C(=O)N[C@@H](CCO)c2ccc(Cl)cc2)CCN(c2ncnc3[nH]ccc23)CC1 [Capivasertib] + CC(=O)c1c(C)c2cnc(Nc3ccc(N4CCNCC4)cn3)nc2n(C2CCCC2)c1=O [Palbociclib] (first compound max 10 µM, 7x7, partner max 10 µM) | 0.332 | 0.362 | 0.523 | 0.2 | 1 | 0.556 | 0.712 | 0.382 | 0.567 | 0.798 | 0.638 | 0.402 | 0.527 | 0.474 | 0.294 | 0.61 | 0.265 | 0.621 | 0.569 | 0.754
2 | NC1(C(=O)N[C@@H](CCO)c2ccc(Cl)cc2)CCN(c2ncnc3[nH]ccc23)CC1 [Capivasertib] + CC(C)n1c(=O)n(C)c2cnc3cc(F)c(-c4ccc(OCCCN5CCCCC5)nc4)cc3c21 [AZD1390] (first compound max 10 µM, 7x7, partner max 0.3 µM) | 0.299 | 0.362 | 0.454 | 0.11 | 0.366 | 0.635 | 0.813 | 0.576 | 0.585 | 0.429 | 0.604 | 0.409 | 0.54 | 0.399 | 0.312 | 0.287 | 0.247 | 0.229 | 0.473 | 0.723
3 | NC1(C(=O)N[C@@H](CCO)c2ccc(Cl)cc2)CCN(c2ncnc3[nH]ccc23)CC1 [Capivasertib] + CCN(CCO)CCCOc1ccc2c(Nc3cc(CC(=O)Nc4cccc(F)c4)[nH]n3)ncnc2c1 [AZD2811] (first compound max 10 µM, 7x7, partner max 1 µM) | 0.348 | 0.377 | 0.484 | 0.104 | 0.596 | 0.683 | 0.855 | 0.742 | 0.525 | 0.628 | 0.611 | 0.412 | 0.834 | 0.403 | 0.481 | 0.619 | 0.309 | 0.404 | 0.657 | 0.794
4 | NC1(C(=O)N[C@@H](CCO)c2ccc(Cl)cc2)CCN(c2ncnc3[nH]ccc23)CC1 [Capivasertib] + COc1nnc2ccc(N3CCC(c4ccc(OCCN5CCN(C)C(=O)[C@H]5C)cc4)CC3)nn12 [AZD5153] (first compound max 10 µM, 7x7, partner max 1 µM) | 0.416 | 0.381 | 0.611 | 0.308 | 0.993 | 0.571 | 0.86 | 0.587 | 0.753 | 0.842 | 0.652 | 0.362 | 0.594 | 0.456 | 0.564 | 1 | 0.284 | 0.652 | 0.857 | 0.892
5 | NC1(C(=O)N[C@@H](CCO)c2ccc(Cl)cc2)CCN(c2ncnc3[nH]ccc23)CC1 [Capivasertib] + C[C@@H]1COCCN1C2=NC(=NC(=C2)C3(CC3)[S@](=N)(=O)C)C4=C5C=CNC5=NC=C4 [AZD6738] (first compound max 10 µM, 7x7, partner max 10 µM) | 0.406 | 0.501 | 0.494 | 0.575 | 1 | 0.683 | 0.855 | 0.605 | 0.746 | 0.974 | 0.669 | 0.655 | 0.809 | 0.72 | 0.477 | 0.985 | 0.265 | 0.718 | 0.762 | 0.851
6 | NC1(C(=O)N[C@@H](CCO)c2ccc(Cl)cc2)CCN(c2ncnc3[nH]ccc23)CC1 [Capivasertib] + Cn1cnc2c(F)c(Nc3ccc(Br)cc3Cl)c(C(=O)NOCCO)cc21 [Selumetinib] (first compound max 10 µM, 7x7, partner max 10 µM) | 0.39 | 0.492 | 0.621 | 0.281 | 1 | 0.957 | 0.793 | 0.4 | 0.893 | 0.738 | 0.829 | 0.369 | 0.653 | 0.344 | 0.321 | 0.926 | 0.385 | 0.574 | 0.496 | 0.876
7 | COc1cccc2c1C(=O)c1c(O)c3c(c(O)c1C2=O)C[C@@](O)(C(=O)CO)C[C@@H]3O[C@H]1C[C@H](N)[C@H](O)[C@H](C)O1 [Doxorubicin] + Cc1cc2ncnn2cc1Nc1ncc2c(n1)n(C1CCOCC1)c(=O)n2C [AZD7648] (first compound max 1 µM, 7x7, partner max 10 µM) | 0.197 | 0.473 | 0.469 | 0.781 | 1 | 0.512 | 0.896 | 0.695 | 0.598 | 0.625 | 0.932 | 0.825 | 0.891 | 0.462 | 1 | 0.963 | 0.282 | 0.848 | 0.878 | 0.561
8 | CS(=O)(=O)CCNCc1ccc(-c2ccc3ncnc(Nc4ccc(OCc5cccc(F)c5)c(Cl)c4)c3c2)o1 [Lapatinib] + C[C@@H](Oc1cc(-c2cnn(C3CCNCC3)c2)cnc1N)c1c(Cl)ccc(F)c1Cl [Crizotinib] (first compound max 10 µM, 7x7, partner max 10 µM) | 0.905 | 0.815 | 0.925 | 0.234 | 1 | 1 | 0.936 | 0.477 | 0.971 | 0.958 | 0.631 | 0.687 | 0.998 | 0.804 | 0.957 | 0.996 | 0.391 | 0.857 | 0.895 | 0.953
9 | CC(=O)c1c(C)c2cnc(Nc3ccc(N4CCNCC4)cn3)nc2n(C2CCCC2)c1=O [Palbociclib] + CC1(C)CCC(CN2CCN(c3ccc(C(=O)NS(=O)(=O)c4ccc(NCC5CCOCC5)c([N+](=O)[O-])c4)c(Oc4cnc5[nH]ccc5c4)c3)CC2)=C(c2ccc(Cl)cc2)C1 [Venetoclax] (first compound max 10 µM, 7x7, partner max 1 µM) | 0.0591 | 0.0862 | 0.286 | 0.116 | 0.661 | 0.171 | 0.345 | 0.37 | 0.325 | 0.523 | 0.423 | 0.348 | 0.362 | 0.282 | 0.134 | 0.499 | 0.12 | 0.451 | 0.758 | 0.519
10 | CC(=O)c1c(C)c2cnc(Nc3ccc(N4CCNCC4)cn3)nc2n(C2CCCC2)c1=O [Palbociclib] + Cc1c2c(nn1C)CSCc1cc(n(C)n1)CSc1cc(c3ccccc3c1)OCCCc1c(C(=O)O)n(C)c3c-2c(Cl)ccc13 [AZD5991] (first compound max 10 µM, 7x7, partner max 1 µM) | 0.497 | 0.207 | 0.366 | 0.693 | 1 | 0.249 | 0.406 | 0.993 | 0.406 | 0.633 | 0.321 | 0.234 | 0.389 | 0.336 | 0.509 | 0.457 | 0.208 | 0.805 | 0.62 | 0.488
11 | CC(=O)c1c(C)c2cnc(Nc3ccc(N4CCNCC4)cn3)nc2n(C2CCCC2)c1=O [Palbociclib] + Cn1cnc2c(F)c(Nc3ccc(Br)cc3Cl)c(C(=O)NOCCO)cc21 [Selumetinib] (first compound max 10 µM, 7x7, partner max 10 µM) | 0.0817 | 0.403 | 0.435 | 0.138 | 1 | 0.389 | 0.431 | 0.438 | 0.543 | 0.534 | 0.455 | 0.209 | 0.3 | 0.331 | 0.249 | 0.833 | 0.219 | 0.491 | 0.445 | 0.519
12 | COc1cccc(OCCCN)c1-c1cc(Nc2cnc(C#N)cn2)n[nH]1 [Prexasertib] + C=CCn1c(=O)c2cnc(Nc3ccc(N4CCN(C)CC4)cc3)nc2n1-c1cccc(C(C)(C)O)n1 [AZD1775] (first compound max 1 µM, partner max 1 µM) | 0.234 | 0.444 | 0.387 | 0.75 | 1 | 0.424 | 0.972 | 0.942 | 0.83 | 0.815 | 0.516 | 0.853 | 0.95 | 0.832 | 0.916 | 0.969 | 0.371 | 0.916 | 0.906 | 0.618
13 | COc1cccc(OCCCN)c1-c1cc(Nc2cnc(C#N)cn2)n[nH]1 [Prexasertib] + CCc1c2c(nc3ccc(O)cc13)-c1cc3c(c(=O)n1C2)COC(=O)[C@]3(O)CC [SN-38] (first compound max 1 µM, 7x7, partner max 0.3 µM) | 0.244 | 0.488 | 0.295 | 0.933 | 1 | 0.547 | 0.964 | 0.84 | 0.962 | 0.857 | 0.861 | 0.783 | 0.956 | 0.895 | 0.981 | 1 | 0.258 | 0.953 | 0.954 | 0.852
